Data set [1] has as its target human MDM2 (Homo sapiens, UniProt Q00987). Briefly: in vitro affinity to MDM2 (dissociation constant). The settings on record: Scramble3S with spread ± 0.028, binding method not described.
The test system of data set [2] is p21 mRNA in LoVo cells. Briefly: p21 mRNA RT-qPCR in LoVo. It is filed as cell-based, human. The settings on record: 48 h, three independent experiments. As for the experimental part:
(§1) Gene expression was evaluated 48 h after treatment using quantitative real‐time PCR (7900HT Fast; Applied Biosystems, Foster City, CA, USA). RNA extraction was performed using TRIzol® Reagent (Invitrogen, Waltham, MA, USA). RNA (500/1000 ng from cells or mice, respectively) was reverse transcribed with SMART MMLV Reverse Transcriptase (Takara, Shiga, Japan) and subjected to PCR amplification using the SensiMix SYBR Lox‐ROX Kit (Meridian Bioscience, Cincinnati, OH, USA).
On the technique in general: In qPCR the cycle at which signal appears reflects the starting amount.

In data set [3] the test system is human p53 pathway target genes in HCT116 cells. Briefly: RT2 Profiler PCR Array Human p53 signaling pathway, HCT116. It is filed as cell-based. As for the experimental part:
(§2) For human p53 signaling pathway analysis, the RT^2 Profiler PCR Array 384 well ‘Human p53 signaling pathway’ was used, following the manufacturer's instructions (Qiagen, Venlo, The Netherlands). Differences of ≥ 1.3‐fold were used as […] criteria. The hsa‐miR‐34a expression was analyzed using the TaqMan™ MicroRNA Assay (Thermo). The results were normalized to those obtained using snRNA RNU6B. Common targets of p53 and miR‐34a were evaluated using miRGator v3.0, miRTarBase, and TargetScanHuman.

The conditions of data set [4]: ref [20], cited from earlier work. From the text:
To test Pep3S's tumor‐suppressive properties, we focused on colorectal cancer (CRC) cell lines. The frequency of the wild‐type (wt) p53 gene in CRC is approximately 40%, which offers a potential window for the therapeutic application of p53‐reactivating molecules. […] BIK levels were increased by Pep3S. […] To understand the molecular pathways underlying Pep3S activity, we analyzed differentially expressed genes (DEGs) by Pep3S and Pep3 compared to a mix of Scramble3 and Scramble3S in HCT116 cells using a p53‐transcriptional array containing 80 validated targets of the human p53 pat ...

In data set [5] the test system is SESN2, IGF1R, STAT1 mRNA in HCT116 cells. Briefly: SESN2, IGF1R, STAT1 mRNA RT-qPCR in HCT116. The settings on record: HCT116, 48 h. The class given is cell-based, human. As for the experimental part: as §1
Data set [6] concerns p21 mRNA in HCT116 cells. Briefly: p21 mRNA RT-qPCR in HCT116. The class given is cell-based, human. The settings on record: HCT116, 48 h; three independent experiments. As for the experimental part: as §1
Data set [7] concerns p21 mRNA in HCT116 xenograft tumors. The data set is described as follows: p21 mRNA RT-qPCR in xenograft tumors. It is filed as in vivo, mouse. The settings on record: n Pep3 = 3, n Pep3S = 5. As for the experimental part:
as §1
Animal studies obtained ethical approval from the Ministry of Health (Protocol N° 79/2023‐PR) and were conducted conforming to the institutional guidelines in compliance with named Italian legislation (DL N116, GU, suppl. 40, 18‐2‐1992). Inbred BALB/c nude mice (CAnN.Cg‐Foxn1^nu/J) obtained from the CNR‐IBBC‐EMMA‐Infrafrontier animal facility were housed in two per cage in the CNR‐IBBC‐EMMA‐Infrafrontier animal house. All animals were housed under controlled lighting conditions (daily light period, 07.00–19.00 h) at 20 ± 2° C, with ad libitum access to food (Emma 23, Mucedola, Settimo Milanese, Italy) and chlorinated filtered water. […] Tumor growth was followed and analyzed by luciferase activity over time. […] Bioluminescence acquisitions were performed with a Hybrid OI/CT system (MILabs, Houten, The Netherlands), and the images were analyzed using MILABS‐OI‐PP software. […]

For data set [8], the system named is p21. The settings on record: cited from earlier work. From the text:
P21 has also shown anti‐apoptotic activity, which could contribute to antagonizing the p53‐mediated apoptotic response.

The subject of data set [9] is immortalized lymphoblastoid cells (LCLs) from healthy donors. The data set is described as follows: Viability assay of lymphoblastoid cells (LCLs). The class given is cell-based, human. Conditions: 4 biological replicates, Pep3S 10 µM, Nutlin 2.5 and 10 µM.
In data set [10] the test system is miR-34a in HCT116 cells. The data set is described as follows: miR-34a expression RT-qPCR in HCT116. The settings on record: HCT116, 48 h; two independent experiments. It is filed as cell-based, human. As for the experimental part: as §2
Data set [11] relates to p21 mRNA in immortalized lymphoblastoid cells (LCLs) from healthy donors. The data set is described as follows: p21 mRNA RT-qPCR in lymphoblastoid cells. The class given is cell-based, human. The settings on record: 48 h.
Text: (§3) Human colorectal carcinoma cells HCT116 wt‐p53 (RRID: CVCL_0291) were purchased from Sigma‐Aldrich (Darmstadt, Germany). HCT116 exon two knockout TP53 (hereafter p53^−/−) were obtained from Vogelstein's Lab, LoVo (Johns Hopkins University, Baltimore, MD, USA) (RRID: CVCL_0399) from Vitiani's lab (Istituto Superiore di Sanità, Roma, Italy). HCT116 and LoVo cells were maintained in DMEM low glucose (Sigma‐Aldrich) supplemented with 10% FBS (Gibco™, Walthman, MA, USA), 1% penicillin–streptomycin (Sigma‐Aldrich), 1% L‐glutamine (Sigma‐Aldrich) at 37 °C, 5% CO2. Lymphoblastoid cells from healthy donors (LCLs) were grown in RPMI‐1640 (Sigma‐Aldrich), supplemented with 15% FBS (Gibco™), 1% penicillin–streptomycin (Sigma‐Aldrich), 1% L‐glutamine (Sigma‐Aldrich). Primary human myoblasts (Lonza, Basel, Switzerland) were grown in SkGM‐2 medium (Lonza). Cell lines were maintained at 37 °C, 5% CO2.
as §1

Data set [12] deals with p21 mRNA in shMDM4 HCT116 cells. Briefly: p21 mRNA in shMDM4 vs shLacZ HCT116. It is filed as cell-based, human. The settings on record: doxycycline-inducible shMDM4 vs shLacZ HCT116, 48 h treatment. As for the experimental part:
ShMDM4 and shLacZ (as control) HCT116 (wt‐p53 and p53^−/−) cells were obtained by transfection of doxycycline‐inducible silencing plasmids using jetPRIME transfection reagent (Polyplus, Illkirch‐Graffenstaden, France). Cells were maintained in DMEM low glucose (Sigma‐Aldrich) supplemented with 10% FBS (Gibco™) and 1% penicillin–streptomycin (Sigma‐Aldrich). After 24 h, the cells were selected with […] puromycin (Sigma‐Aldrich). Silencing was induced with 1 μg·mL^−1 doxycycline.
as §1

Data set [13] concerns p53. Conditions: ref [4]; cited from earlier work. From the text:
The extent to which these additional events could be attributed to the dissociated proteins MDM4 or MDM2 remains to be ascertained. Indeed, the potential persistence of MDM2 and MDM4 binding to p53 represents a unique feature of p53 reactivating molecules. […] This is probably mediated by the binding of MDM2 to p53, which, although with reduced efficiency, controls the p53 protein levels. In ad ...

Data set [14] relates to miR-34a in LoVo cells. The data set is described as follows: miR-34a expression RT-qPCR in LoVo. The class given is cell-based, human. Conditions: 48 h, two independent experiments. As for the experimental part: as §2
Data set [15] relates to human myoblasts. Briefly: Proliferation of human myoblasts. It is filed as cell-based. The settings on record: healthy human myoblasts.
Text: as §3

Data set [16] deals with HCT116 cells (wt-p53). The data set is described as follows: PrestoBlue viability assay, 2D HCT116. The settings on record: 2D HCT116, 96 h, three independent experiments. The class given is cell-based, human.
Text: as §3
Treatments (0.1% DMSO, 10 μM all peptides, 20 μM cisplatin, 10 μM Nutlin‐3a (Sigma‐Aldrich)) were administered every other day. […]
Cell viability was monitored every other day using PrestoBlue™ HS Cell Viability Reagent (Thermo Fisher Scientific). The fluorescence signal was read at 45′ (for 2D) or 1 h (for spheroids) using a spectrophotometer plate reader (Varioskan™ LUX; Thermo Fisher Scientific). Fluorescence excitation/emission: 570/610 nm.

Where [17] appears, read: comparative analysis, miRGator v3.0, miRTarBase, TargetScanHuman.
The mark [18] stands for this setting: heat map of DEGs modulated by Pep3 only.

The values that follow come from PMC12330940, “Targeting the MDM2‐MDM4 interaction interface reveals an otherwise therapeutically active wild‐type p53 in colorectal cancer” (Molecular Oncology, 2025).

Ends that are not written are not given here.

human MDM2, sequence (Q00987 whole entry): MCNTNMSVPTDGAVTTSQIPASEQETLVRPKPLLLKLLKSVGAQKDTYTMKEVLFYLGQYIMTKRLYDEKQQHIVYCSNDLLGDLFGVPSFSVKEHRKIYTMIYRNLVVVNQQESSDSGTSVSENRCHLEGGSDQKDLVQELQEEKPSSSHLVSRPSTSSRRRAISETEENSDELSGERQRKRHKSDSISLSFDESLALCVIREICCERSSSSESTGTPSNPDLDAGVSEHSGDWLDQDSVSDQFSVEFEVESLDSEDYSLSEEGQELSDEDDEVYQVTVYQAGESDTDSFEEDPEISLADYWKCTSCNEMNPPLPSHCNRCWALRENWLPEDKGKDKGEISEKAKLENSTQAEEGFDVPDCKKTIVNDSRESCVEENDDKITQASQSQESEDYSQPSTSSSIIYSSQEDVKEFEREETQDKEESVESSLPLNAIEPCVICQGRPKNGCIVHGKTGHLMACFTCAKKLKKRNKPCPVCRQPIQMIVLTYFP

For orientation: Kd means a measure of binding affinity in units of concentration. Read a high Kd as weaker binding. One may read the IC50 as the point on the concentration scale where inhibition reaches its midpoint. Turning to Ac-KEIQLVIKVFIA-NH2 [Pep3], the Kd in [1] stood at 0.245 ± 0.029 nM. The “p21 mRNA levels” value in data set [2] is reported as “Although less severe, Pep3 caused a similar decrease”. Besides, the “shared DEGs varying significantly between Pep3 and Pep3S” value in [3] (HCT116) was 11/16. Further, the “p21 levels in p53 array” value in [3] (HCT116, p53 array) is listed as “not significantly altered”. Further, in [3] (setting [17]), the “downregulated DEGs that are miR-34a targets, common to both peptides” value was 8 of the 10 and the “uniquely downregulated DEGs that are miR-34a targets” value is recorded as 4/7. In [3] (setting [18]), this compound showed an ADGRB1 expression of 0.64, a BAX expression of 0.55, an EGFR expression of 0.50 and an FASLG expression of 3.64. In data set [3] (setting [18]), this compound displayed an MCL1 expression of 0.59, an NFKB1 expression of 0.51, a PRKCA expression of 0.53 and a PTEN expression of 0.59. The “DEGs unique to the peptide” value in [3] (vs Scramble mix, HCT116) was 8/33. Further, the “mediators of pro-apoptotic activity” value in [4] (PIG3 and BIK) is “mediated by the activation of the pro‐oxidant p53‐targets PIG3 and BIK”. For the same compound, the IC50 in [4] (compared with Pep3S IC50, cell line not given) is 10000 nM. For the same compound, the “pro-apoptotic activity linked to oxidative stress” value in data set [4] is on record as “linked to the activation of an oxidative stress response”. In data set [5] (SESN2, IGF1R, STAT1, two independent experiments), the “DEG mRNA levels by RT-qPCR” value was “confirmed the downregulation of some of these DEGs”. The “p21 mRNA levels” value in data set [6] is “Although less severe, Pep3 caused a similar decrease”. Also, the “p21 mRNA levels” value in data set [7] is reported as “Although less severe, Pep3 caused a similar decrease”.
VAIKF [Scramble3S] had a Kd in data set [1] of 0.447 nM.
Consider `Cc1ccnc(NC(c2cccc(Cl)c2Cl)c2ccc3cccnc3c2O)c1` (centres unmarked) [MMRi64], for which, in data set [8] (ref [21]), the p21 levels result is “minimal induction of p21 followed by its strong downregulation”.
On to `COc1ccc(C2=N[C@@H](c3ccc(Cl)cc3)[C@@H](c3ccc(Cl)cc3)N2C(=O)N2CCNC(=O)C2)c(OC(C)C)c1` [Nutlin‐3a], for which the “p21 mRNA levels” value in data set [2] and in [6] was “strongly induced p21 expression” in each case. Besides, the cell proliferation result in data set [9] is “highly potent”. The miR-34a levels result in data set [10] and in data set [14] was “induced miR‐34a expression” each time. For the same compound, in data set [11], the p21 levels result is “highly potent”. Besides, in [12], the “effect of MDM4 silencing on p21 regulation” value is given as “ineffective in the upregulation mediated by Nutlin‐3a”. Also, the p53 levels entry in data set [13] is “increase in p53 levels”. In data set [5] (Fig. S3C,D), the “levels of some p53 targets by RT-qPCR” value was “opposite activity by upregulating the levels of some of these targets”. Moreover, in data set [5] (two independent experiments), the “SESN2 mRNA level” value is given as “strong upregulation of SESN2”.
Turning to KVFIA [Pep3S], the cell proliferation entry was “did not alter cell proliferation” in data set [15]; “ineffective in reducing p21 levels and cell proliferation” in data set [9]. For the same compound, it took 5540 nM to reach half-maximal inhibition in data set [16] (IC50). In data set [1], this compound returned a Kd of 0.152 ± 0.007 nM.
As to `OCc1ccc(-c2ccc(-c3ccc(CO)s3)o2)s1` [RITA], in data set [8] (ref (43)), the p21 protein levels result is given as “caused the downregulation of p21 protein levels”.
